Test results reported in US11524940B1, “Inhibitors of cysteine proteases and methods of use thereof” (priority 2020, dated 2022).
pEC50: −log10 of the molar value.

target: 229E Mpro (Human coronavirus 229E (HCoV-229E), UniProt P0C6X1); assay: 229E Mpro activity; format: biochemical; details: read-out: 229E Mpro EC50
Sequence (P0C6X1 2966-3267 limits assumed): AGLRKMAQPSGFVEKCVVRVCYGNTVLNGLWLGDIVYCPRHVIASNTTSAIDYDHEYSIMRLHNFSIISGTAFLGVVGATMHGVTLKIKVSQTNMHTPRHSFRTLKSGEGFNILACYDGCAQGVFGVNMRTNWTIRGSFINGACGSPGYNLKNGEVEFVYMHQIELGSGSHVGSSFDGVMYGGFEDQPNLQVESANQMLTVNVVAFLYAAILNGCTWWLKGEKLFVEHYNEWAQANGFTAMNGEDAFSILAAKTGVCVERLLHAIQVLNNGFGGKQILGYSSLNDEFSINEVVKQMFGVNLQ
Protocol: Compounds are assayed using standard methods to assess compound activity and IC50. […] The assay buffer contains 20 mM of Tris-HCl (pH 7.3), 100 mM of NaCl, 1 mM of EDTA, 5mM of TCEP and 0.1% BSA.

Q: `N#C[C@H](C[C@@H]1CCNC1=O)NC(=O)[C@@H]1CS[C@H]2CC[C@H](NC(=O)OCc3ccccc3)C(=O)N21` [Compound 457, Benzyl((3R,6S,8aS)-3-(((S)-1-cyano-2-((S)-2-oxopyrrolidin-3-yl)ethyl)carbamoyl)-5-oxohexahydro-2H-thiazolo[3,2-a]pyridin-6-yl)carbamate] was tested. Which pEC50 did it give?
A: < 4.52

Q: With `CC[C@H]1CN(C(=O)c2cc3c(OC)cccc3[nH]2)[C@@H]1C(=O)N[C@H](C#N)C[C@@H]1CCNC1=O` [Compound 391, (2S,3S)-N-((S)-1-cyano-2-((S)-2-oxopyrrolidin-3-yl)ethyl)-3-ethyl-1-(4-methoxy-1H-indole-2-carbonyl)azetidine-2-carboxamide] as the compound, how does the pEC50 read?
A: < 4.52

Q: With `COc1cc(Cl)cc2[nH]c(C(=O)N[C@@H](CC(C)(C)C)C(=O)N[C@H](C#N)C[C@@H]3CCCNC3=O)cc12` [Compound 1149] as the compound, how does the pEC50 read?
A: > 5.70

Q: `COc1cccc2[nH]c(C(=O)N[C@@H](Cc3cccc(Cl)c3)C(=O)N[C@H](C#N)C[C@@H]3CCNC3=O)cc12` [Compound 153] was tested. Which pEC50 did it give?
A: 4.52 to 5.00

Q: With `COc1cccc2[nH]c(C(=O)N3CC4(CCCCC4)CC3C(=O)N[C@H](C#N)C[C@@H]3CCCNC3=O)cc12` (single isomer, unassigned) [603a (Isomer 1)] as the compound, how does the pEC50 read?
A: > 5.70

Q: With `CC(C)C[C@H](NC(=O)CC(C)(O)c1ccc(Cl)cc1)C(=O)N[C@H](C#N)C[C@@H]1CCNC1=O` (single isomer, unassigned) [365 (Isomer 2)] as the compound, how does the pEC50 read?
A: 5.00 to 5.70

Q: How did the pEC50 turn out when `N#Cc1ccc2cc(C(=O)N[C@@H](CC3CC3)C(=O)N[C@H](C#N)C[C@@H]3CCCNC3=O)[nH]c2c1` [Compound 862, 6-cyano-N-[(1S)-2-[[(1S)-1-cyano-2-[(3S)-2-oxo-3-piperidyl]ethyl]amino]-1-(cyclopropylmethyl)-2-oxo-ethyl]-1H-indole-2-carboxamide] was run?
A: > 5.70

Q: `CCCNC(=O)OC(C#N)[C@H](C[C@@H]1CCNC1=O)NC(=O)[C@H](CC(C)C)NC(=O)c1cc2c(OC)cccc2[nH]1` (stereo partly drawn) [Compound 581] was tested. Which pEC50 did it give?
A: < 4.52

Q: How did the pEC50 turn out when `COc1cc(Cl)c2[nH]c(C(=O)N[C@@H](CC3CC3)C(=O)N[C@H](C#N)C[C@@H]3CCNC3=O)cc2c1` [Compound 695, 7-chloro-N-[(1S)-2-[[(1S)-1-cyano-2-[(3S)-2-oxopyrrolidin-3-yl]ethyl]amino]-1-(cyclopropylmethyl)-2-oxo-ethyl]-5-methoxy-1H-indole-2-carboxamide] was run?
A: > 5.70

Q: How did the pEC50 turn out when `COc1cccc2[nH]c(C(=O)N[C@@H](CC(C)C)C(=O)N[C@@H](C[C@@H]3CCNC3=O)C3OC(=O)N(c4ccccc4)C3=N)cc12` (stereo partly drawn) [Compound 359, N-[(1S)-1-[[(1S)-1-(4-imino-2-oxo-3-phenyl-oxazolidin-5-yl)-2-[(3S)-2-oxopyrrolidin-3-yl]ethyl]carbamoyl]-3-methyl-butyl]-4-methoxy-1H-indole-2-carboxamide] was run?
A: 4.52 to 5.00

Q: `COc1ccc2[nH]c(C(=O)N[C@@H](CC(C)(C)C)C(=O)N[C@H](C#N)C[C@@H]3CCCNC3=O)cc2c1Cl` [Compound 808, 4-chloro-N-[(1S)-1-[[(1S)-1-cyano-2-[(3S)-2-oxo-3-piperidyl]ethyl]carbamoyl]-3,3-dimethyl-butyl]-5-methoxy-1H-indole-2-carboxamide] was tested. Which pEC50 did it give?
A: > 5.70

Q: How did the pEC50 turn out when `COc1cccc2[nH]c(C(=O)N[C@@H](CC(C)C)C(=O)N[C@@H](C[C@@H]3CCNC3=O)C(C#N)N3CCCC3)cc12` (single isomer, unassigned) [331 (Isomer 1)] was run?
A: > 5.70

Q: With `N#C[C@H](C[C@@H]1CCCNC1=O)NC(=O)[C@H](CC1CC1)NC(=O)c1cc2cc(Cl)ccc2[nH]1` [Compound 633, 5-chloro-N-[(1S)-2-[[(1S)-1-cyano-2-[(3S)-2-oxo-3-piperidyl]ethyl]amino]-1-(cyclopropylmethyl)-2-oxo-ethyl]-1H-indole-2-carboxamide] as the compound, how does the pEC50 read?
A: > 5.70

Q: With `N#C[C@H](C[C@@H]1CCNC1=O)NC(=O)[C@@H](CC1CC1)n1cccc(NCC(F)(F)F)c1=O` (single isomer, unassigned) [467 (Isomer 1)] as the compound, how does the pEC50 read?
A: 5.00 to 5.70

Q: How did the pEC50 turn out when `COc1cccc2[nH]c(C(=O)N[C@@H](CC(C)C)C(=O)N[C@@H](C[C@@H]3CCNC3=O)C(C#N)NCC(=O)O)cc12` (single isomer, unassigned) [653 (Isomer 2)] was run?
A: > 5.70

Q: How did the pEC50 turn out when `COc1cccc2[nH]c(C(=O)N[C@@H](CC(C)C)C(=O)N[C@@H](C[C@@H]3CCNC3=O)C(=O)CO)cc12` [Compound 741, N-[(1S)-1-[[(1S)-3-hydroxy-2-oxo-1-[[(3S)-2-oxopyrrolidin-3-yl]methyl]propyl]carbamoyl]-3-methyl-butyl]-4-methoxy-1H-indole-2-carboxamide] was run?
A: > 5.70

Q: How did the pEC50 turn out when `COc1cccc2[nH]c(C(=O)N[C@@H](CC(C)C)C(=O)N[C@@H](C[C@@H]3CCNC3=O)C(C#N)NCC(=O)O)cc12` (single isomer, unassigned) [653 (Isomer 1)] was run?
A: > 5.70

Q: `N#C[C@H](C[C@@H]1CCNC1=O)NC(=O)[C@H](CC1CC1)NC(=O)c1nc2c(Cl)cc(Cl)cc2[nH]1` [Compound 525, 4,6-dichloro-N-[(1S)-2-[[(1S)-1-cyano-2-[(3S)-2-oxopyrrolidin-3-yl]ethyl]amino]-1-(cyclopropylmethyl)-2-oxo-ethyl]-1H-benzimidazole-2-carboxamide] was tested. Which pEC50 did it give?
A: > 5.70

Q: How did the pEC50 turn out when `N#C[C@H](C[C@@H]1CCNC1=O)NC(=O)[C@H](CC1CC1)N1CCC2(CCCN2)C1=O` (stereo partly drawn) [Compound 471, N-[(1S)-1-cyano-2-[(3S)-2-oxopyrrolidin-3-yl]ethyl]-3-cyclopropyl-2-(6-oxo-1,7-diazaspiro[4.4]nonan-7-yl)propanamide] was run?
A: 4.52 to 5.00

Q: `COc1cccc2[nH]c(C(=O)N[C@@H](CC(C)C)C(=O)N[C@H](C#N)Cc3cn(C)cn3)cc12` [Compound 227, N-[(1S)-1-[[(1S)-1-cyano-2-(1-methylimidazol-4-yl)ethyl]carbamoyl]-3-methyl-butyl]-4-methoxy-1H-indole-2-carboxamide] was tested. Which pEC50 did it give?
A: < 4.52

Q: `N#C[C@H](C[C@@H]1CCCNC1=O)NC(=O)[C@H](CC1CC1)NC(=O)c1cc2c(F)ccc(Br)c2[nH]1` [Compound 854] was tested. Which pEC50 did it give?
A: > 5.70

Q: `N#C[C@H](C[C@@H]1CCCNC1=O)NC(=O)[C@H](CC1CC1)NC(=O)c1cc2c(Cl)ccc(F)c2[nH]1` [Compound 826] was tested. Which pEC50 did it give?
A: > 5.70

Q: `CCNC(C#N)[C@H](C[C@@H]1CCNC1=O)NC(=O)[C@H](CC(C)C)NC(=O)c1cc2c(OC)cccc2[nH]1` (single isomer, unassigned) [511 (Isomer 1)] was tested. Which pEC50 did it give?
A: > 5.70

Q: How did the pEC50 turn out when `N#C[C@H](C[C@@H]1CCNC1=O)NC(=O)C1CC2(CCCCC2)CN1C(=O)c1cc2cccc(Cl)c2[nH]1` (single isomer, unassigned) [984 (Isomer 1)] was run?
A: > 5.70

Q: With `COc1cccc2[nH]c(C(=O)N[C@@H](CC3CC3)C(=O)N[C@](C)(C#N)CC3CCNC3=O)cc12` (single isomer, unassigned) [1055 (Isomer 1)] as the compound, how does the pEC50 read?
A: < 4.52

Q: With `Cc1ccn(C(CC2CC2)C(=O)N[C@H](C#N)C[C@@H]2CCNC2=O)c(=O)c1NC(=O)OC(C)(C)C` (single isomer, unassigned) [591 (Isomer 2)] as the compound, how does the pEC50 read?
A: < 4.52

Q: How did the pEC50 turn out when `COc1cccc2[nH]c(C(=O)N[C@@H](CC(C)(C)F)C(=O)N[C@H](C#N)C[C@@H]3CCCNC3=O)cc12` [Compound 667, N-[(1S)-1-[[(1S)-1-cyano-2-[(3S)-2-oxo-3-piperidyl]ethyl]carbamoyl]-3-fluoro-3-methyl-butyl]-4-methoxy-1H-indole-2-carboxamide] was run?
A: > 5.70
